Test results taken from publication PMC6335420, “The cell cycle regulator GpsB functions as cytosolic adaptor for multiple cell wall enzymes” (Nature Communications, 2019).
“Also recorded” adds a separate entry of the source. Residues, ends and D or L forms follow the SMILES beside them. *: point of attachment. Fluorescein(5-Mal) = O=C1OC2(c3ccc(O)cc3Oc3cc(O)ccc32)c2ccc(N3C(=O)CC(*)C3=O)cc21; X1 = CN(C)c1ccc2c(-c3ccc(N4C(=O)CC(*)C4=O)cc3C(=O)[O-])c3ccc(=[N+](C)C)cc-3oc2c1; 5FAM = O=C1OC2(c3ccc(O)cc3Oc3cc(O)ccc32)c2ccc(C(=O)*)cc21

B1: LmGpsB: L. monocytogenes GpsB (self-interaction) (protein)
chain: MTSEQFEYHLTGKEILEKEFKTGLRGYSPEDVDEFLDMVIKDYSTFTQEIEALQAENIRLVQELDNAPLRTSTQPAPTFQAAAQPAGTTNFDILKRLSNLEKHVFGNKLDDNE
modifications: left off: T18 fragment of Bordetella pertussis adenylate cyclase, C-terminal, kept
B2: LmDivIB: L. monocytogenes DivIB (protein)
chain: MAENKRVISIENRIPELKKYRKKKLVRHLAILIGIFVILIAITLYFLSPLSKLDKIAVSGNKQLTENEVRKESGLEIGEFVIGISNGKTEDALKKNTLIKDATVSKEGLNDVQINITEFKTIGYQQQDGKYYDVLESGIMLTDQPRQFPIGNDLLFQNFKNGKTLEKMVDQINKLPKDVVSSISEVIYSPTKSDKNHIKLYMNDGNQVSADISTFAEKMQHYPAIVAQLAKGQKGVIDIEVGSYFQSYYQQNAEKKATEEAAKEKKETNE
modifications: left off: T25 fragment of Bordetella pertussis adenylate cyclase (vector pKT25), end not stated, kept
notes: L. monocytogenes DivIB
B3: LmMreC: L. monocytogenes MreC (protein)
chain: MPQFFLNKRLIILLISIIVLVALVGFSLRDRENASWPEQFVKDVVGFGENIVAKPTSFISGAVDGVVDLKNTYTENQHLKERLEELAQLESEVADLKKENKDLKESLDITDSIRDYDPLNASVISRNPTNWNDQVEIDKGSSDGVKPDMAVTTPSGLIGKVTTTGAKSATVELLTSSDVKNRVSAKVQGKENAFGIINGYDSDTKLLELKQLPYDMKFKKGQKVVTSGLGGKFPAGIFIGTIEKVETDKMGLSQTAFIKPGADMYDLNHVTVLKRSAEAGTTDDDTTSSDTTGGQ
modifications: left off: T25 fragment of Bordetella pertussis adenylate cyclase (vectors pKT25 and p25-N), end not stated, kept
notes: L. monocytogenes MreC
B4: LmSepF: L. monocytogenes SepF (protein)
chain: MGLSNKFKSFFFLDEEEEYYEEEVAREPEPMQKKTKKEKPNKNRFYAVEEDDAKVVSMQGAQFSSRMVLAEPRVYAEAQELADYLKEYKSVVVNLQRISHDQATRIVDFLSGTVYALGGDIQRVGNNIFLCTPDNVEVDGSISEMLDEQNFM
modifications: left off: T25 fragment of Bordetella pertussis adenylate cyclase (vectors pKT25 and p25-N), end not stated, kept
notes: L. monocytogenes SepF

Assays:
SpGpsB1-63 = biological target: T1, SpGpsB1-63 (Streptococcus pneumoniae, UniProt Q8DR57); assay: Fluorescence polarisation binding to SpGpsB1-63; conditions: FP; for reduction in affinity for SpGpsB1-63: relative to wild-type SpPBP2a23-45
T1 construct: The SpGpsB1-63 expression construct (pET28SpGpsB1-63) was prepared by PCR amplification of gpsB; His6 (N, cleaved yes); made in house; host or cells: E. coli BL21(DE3)
Text: 75 the BsGpsB5-64:BsPBP11-17 complex.

LmGpsB = assay: BACTH (bacterial two-hybrid) interaction with LmGpsB; format: cell-based, Listeria monocytogenes; conditions: E. coli BTH101, 30 °C, photographed after 24 and 48 h; LmPBPA1 variants as T25-PBPA1ΔGT-TP
Text: The BACTH system[63] was used for analysis of protein:protein interactions. First, LmGpsB was screened against LmPBPA1 (lmo1892) variants to identify residues in LmPBPA1 that are important for binding LmGpsB. To facilitate screening, we used a T25 fragment of Bordetella pertussis adenylate cyclase that had been fused to the N-terminal 91 amino acids of LmPBPA1 to create a T25-LmPBPA1 fusion containing the N-terminal cytoplasmic mini-domain and the transmembrane helix, but lacking lacking the extracellular glycosyltransferase and transpeptidase domains (T25-PBPA1ΔGT-TP) in plasmid pSH437[21]. LmPBPA1 residues that corresponded to the BsGpsB binding motif of BsPBP1 (Thr7, Arg8, Tyr11, Arg12) and additional positively charged amino acids (Lys14, Lys20, Lys21, Lys22, Lys25, Arg26, Lys28 and Arg29) in T25-PBP A1ΔGT-TP were replaced with alanine prior to screening against GpsB-T18. The pSH437 plasmid was mutated by Quikchange mutagenesis using the primer pairs SHW744/SHW754 (T7A, pSH485), SHW746/SHW747 (R8A, pSH486), SHW755/SHW756 (Y11A, pSH487), SHW748/SHW749 (R12A, pSH488), SHW757/SHW758 (K14A, pSH489), SHW759/SHW760 (K20A, pSH490), SHW761/SHW762 (K21A, pSH491), SHW763/SHW764 (K22A, pSH492), SHW765/SHW766 (K25A, pSH493), SHW767/SHW768 (R26A, pSH494), SHW769/SHW770 (K28A, pSH495) and SHW771/SHW772 (R29A, pSH496).
pJR164 and pJR169 were constructed by cloning sepF (primers JR334/JR335 and XbaI/KpnI digestion) into pKT25 and p25-N, respectively. pJR165 and pJR170 were generated by cloning ezrA into pKT25 and p25-N, respectively, using primers JR339/JR340 and XbaI/KpnI for digestion. pJR172 and pJR174 were obtained by cloning zapA into pKT25 and p25-N, respectively, using primers JR337/JR338 and PstI/KpnI. pJR213 was constructed by amplification of divIB with primers JR353/JR354 and cloning into pKT25 using XbaI/KpnI. pJR214 was generated by PCR amplification of divIC with primers JR355/JR356 and cloning into pKT25 using XbaI/KpnI. mreBH was amplified by PCR using oligonucleotides JR368/JR369 and cloned into pKT25 and p25-N using XbaI/KpnI, resulting in pJR233 and pJR236, respectively. pJR242 and pJR243 were obtained by cloning mreC into pKT25 and p25-N, respectively, using primers JR364/JR365 and PstI/KpnI digestion. pbpA2 was cloned into pKT25 using oligonucleotides SHW153/SHW154 and XbaI/KpnI to create pJR250. pbpB1 was amplified with primers SHW157/SHW158 and cloned with SmaI/EcoRI into pKT25, yielding pSH236. pbpB2 was amplified with primers SHW155/SHW156 and cloned into pKT25 after PstI/BamHI digestion, yielding plasmid pSH235. pbpB3 was amplified using primers SHW159/160 and cloned by PstI/BamHI digestion into pKT25, resulting in pSH237. Finally, pSH484 was obtained by removing the N-terminal domain from gpsB present on plasmid pSH226 in a PCR with the primer pair SHW752/SHW753.
Plasmids encoding the respective genes fused to the N- or C-termini of the T18- or the T25-fragment of the Bordetella pertussis adenylate cyclase were co-transformed into E. coli BTH101. Transformants were selected on LB agar plates containing ampicillin (100 µg^−1mL^−1), kanamycin (50 µg^−1mL^−1), X-Gal (40 µg^−1mL^−1) and IPTG (0.1 mM) and photographs were taken after 24 and 48h growth at 30 °C. The BACTH experiments in Fig. 2b and Supplementary Figure 3C, D were repeated at least twice.

Row | Molecule | BACTH interaction with LmGpsB (LmGpsB) | also measured
1 | CC[C@H](C)[C@H](NC(=O)[C@@H](NC(=O)[C@H](CCCNC(=N)N)NC(=O)[C@H](CCCCN)NC(=O)[C@@H](NC(=O)[C@H](Cc1c[nH]c2ccccc12)NC(=O)[C@H](CCC(=O)O)NC(=O)[C@H](CCSC)NC(=O)CNC(=O)[C@H](CO)NC(=O)CNC(=O)[C@H](CO)NC(=O)CN)[C@@H](C)O)C(C)C)C(=O)N[C@@H](CCCNC(=N)N)C(=O)N[C@@H](Cc1ccc(O)cc1)C(=O)N[C@@H](C)C(=O)N[C@H](C(=O)N[C@@H](CCCCN)C(=O)N[C@@H](CC(N)=O)C(=O)N[C@@H](CCCNC(=N)N)C(=O)N[C@@H](CCCCN)C(=O)N[C@@H](CO)C(=O)N1CCC[C@H]1C(=O)N[C@@H](C)C(=O)N[C@@H](CCC(=O)O)C(=O)N[C@@H](CC(N)=O)C(=O)N[C@@H](CCCNC(=N)N)C(=O)N[C@@H](CCCNC(=N)N)C(=O)N[C@@H](CCCNC(=N)N)C(=O)N[C@H](C(=O)NCC(=O)N[C@@H](CCCCN)C(=O)N[C@@H](CO)C(=O)N[C@@H](CC(C)C)C(=O)N[C@@H](CSC1CC(=O)N(c2ccc3c(c2)C(=O)OC32c3ccc(O)cc3Oc3cc(O)ccc32)C1=O)C(=O)N[C@@H](CO)C(=O)O)C(C)C)[C@@H](C)O (some centres unmarked) [Fluorescein-SpPBP2x1-29] (H-GSGSGMEWTKRVIRYATKNRKSPAENRRRVGKSLC(Fluorescein(5-Mal))S-OH; N-terminus and C-terminus assumed) | – | binding to SpGpsB1-63 (in words) (SpGpsB1-63): interacts
2 | CC[C@H](C)[C@H](NC(=O)[C@@H]1CCCN1C(=O)[C@H](CSC1CC(=O)N(c2ccc(-c3c4ccc(=[N+](C)C)cc-4oc4cc(N(C)C)ccc34)c(C(=O)[O-])c2)C1=O)NC(=O)[C@@H](NC(=O)[C@H](CCC(N)=O)NC(=O)[C@H](C)NC(=O)[C@H](CC(C)C)NC(=O)[C@H](CCCCN)NC(=O)[C@H](CCCCN)NC(=O)[C@H](CCCNC(=N)N)NC(=O)[C@H](CC(=O)O)NC(=O)[C@H](CO)NC(=O)[C@H](CCCNC(=N)N)NC(=O)[C@H](CO)NC(=O)[C@H](CCCCN)NC(=O)[C@H](CCCNC(=N)N)NC(=O)[C@H](CC(C)C)NC(=O)[C@@H](NC(=O)[C@@H](NC(=O)[C@H](CO)NC(=O)[C@H](CC(=O)O)NC(=O)[C@H](CO)NC(=O)[C@H](CC(=O)O)NC(=O)[C@H](CCSC)NC(=O)[C@H](CO)NC(=O)CN)[C@@H](C)O)[C@@H](C)CC)C(C)C)C(=O)O (some centres unmarked) [TAMRA-SpPBP2a23-45 Arg31Lys] (H-GSMDSDSTILRKSRSDRKKLAQVC(X1)PI-OH) | – | reduction in affinity for SpGpsB1-63 (SpGpsB1-63): 2 fold
3 | CC[C@H](C)[C@H](NC(=O)[C@H](CC(C)C)NC(=O)[C@H](CCCNC(=N)N)NC(=O)[C@H](CCSC)NC(=O)CNC(=O)c1ccc2c(c1)C(=O)OC21c2ccc(O)cc2Oc2cc(O)ccc21)C(=O)N[C@@H](CS)C(=O)N[C@@H](CCSC)C(=O)N[C@@H](CCCNC(=N)N)C(=O)N[C@@H](CCCCN)C(=O)N[C@@H](Cc1ccccc1)C(=O)N[C@@H](CC(N)=O)C(=O)N[C@@H](CO)C(=O)N[C@@H](Cc1c[nH]cn1)C(=O)N[C@@H](CO)C(=O)N[C@H](C(=O)N1CCC[C@H]1C(=O)N[C@H](C(=O)N[C@@H](CCCNC(=N)N)C(=O)O)[C@@H](C)CC)[C@@H](C)CC [Fluorescein-SpPBP2b1-17] (5FAM-GMRLICMRKFNSHSIPIR-OH; N-terminus and C-terminus assumed) | – | binding to SpGpsB1-63 (in words) (SpGpsB1-63): not
4 | CC[C@H](C)[C@H](NC(=O)[C@@H]1CCCN1C(=O)[C@H](CSC1CC(=O)N(c2ccc(-c3c4ccc(=[N+](C)C)cc-4oc4cc(N(C)C)ccc34)c(C(=O)[O-])c2)C1=O)NC(=O)[C@@H](NC(=O)[C@H](CCC(N)=O)NC(=O)[C@H](C)NC(=O)[C@H](CC(C)C)NC(=O)[C@H](CCCCN)NC(=O)[C@H](CCCCN)NC(=O)[C@H](CCCNC(=N)N)NC(=O)[C@H](CC(=O)O)NC(=O)[C@H](CO)NC(=O)[C@H](CCCCN)NC(=O)[C@H](CO)NC(=O)[C@H](CCCCN)NC(=O)[C@H](CCCNC(=N)N)NC(=O)[C@H](CC(C)C)NC(=O)[C@@H](NC(=O)[C@@H](NC(=O)[C@H](CO)NC(=O)[C@H](CC(=O)O)NC(=O)[C@H](CO)NC(=O)[C@H](CC(=O)O)NC(=O)[C@H](CCSC)NC(=O)[C@H](CO)NC(=O)CN)[C@@H](C)O)[C@@H](C)CC)C(C)C)C(=O)O (some centres unmarked) [TAMRA-SpPBP2a23-45 Arg31LysArg33Lys] (H-GSMDSDSTILRKSKSDRKKLAQVC(X1)PI-OH) | – | reduction in affinity for SpGpsB1-63 (SpGpsB1-63): > 25 fold
5 | B1 | turned blue after one day of incubation | –
6 | B2 | turned blue after 2 days incubation | –
7 | B3 | turned blue after one day of incubation; also recorded: turned blue after 2 days incubation | –
8 | B4 | turned blue after one day of incubation | –
